We go through two compounds from patent publication US20240366624A1, “METHODS AND COMPOSITIONS FOR TREATING THROMBOTIC DISEASE” (Washington University, priority 2023, published 2024).

Assay [1] has as its target PDI (Homo sapiens, UniProt P07237). Briefly: PDI activity assay. In kind it is biochemical. From the text: (§1) FIG. 17(A-F) is an exemplary embodiment of identification of novel ERO1α inhibitors by high throughput screening in accordance with the present disclosure. FIG. 17A: A scheme of an ERO1α activity assay. FIG. 17B: Screening of chemical libraries in the ERO1α activity assay. FIG. 17C: The inhibitory effect of selected compounds on ERO1α activity. FIG. 17D: The inhibitory effect of selected compounds on PDI activity. FIG. 17E: The inhibitory effect of selected compounds on H2O2 activity. FIG. 17F: The inhibitory effect of selected compounds on thiol-reacting activity. The data represent the mean±SD (n=3). *P<0.05, **P<0.01, ***P<0.001, and ****P<0.0001 vs. vehicle control, Student's t-test.
(§2) To identify a novel ERO1α inhibitor, 5800 compounds were screened using an ERO1α activity assay (FIG. 17A and FIG. 17B). […] The selected compounds were further tested in assays measuring PDI, antioxidant, and thiol-reacting activities (FIG. 17D through FIG. 17F). […] B12 inhibited P-selectin exposure and αIIbβ3 activation in agonist-activated mouse and human platelets in a concentration-dependent manner (FIG. 18B through FIG. 18E).

In assay [2] the target is T1, ERO1α (Homo sapiens, UniProt Q96HE7).
T1 sequence (Q96HE7 24-468): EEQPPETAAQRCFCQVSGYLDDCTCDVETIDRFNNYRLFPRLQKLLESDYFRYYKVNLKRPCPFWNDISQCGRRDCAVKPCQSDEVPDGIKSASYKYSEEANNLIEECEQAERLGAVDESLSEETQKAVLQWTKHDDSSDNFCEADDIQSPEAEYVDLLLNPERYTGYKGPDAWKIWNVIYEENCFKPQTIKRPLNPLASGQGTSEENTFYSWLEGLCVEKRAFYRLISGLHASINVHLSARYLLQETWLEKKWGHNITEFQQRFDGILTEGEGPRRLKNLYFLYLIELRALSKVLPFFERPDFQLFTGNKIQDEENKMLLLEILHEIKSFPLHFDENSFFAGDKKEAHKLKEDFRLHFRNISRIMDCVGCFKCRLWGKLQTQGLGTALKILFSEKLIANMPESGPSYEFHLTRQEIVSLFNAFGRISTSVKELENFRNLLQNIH
In words: Bio-layer interferometry, B12-5 on biotinylated ERO1α biosensor. To be noted: read-out: KD, binding to ERO1α. From the text:
FIG. 18(A-R) is an exemplary embodiment of novel small-molecule inhibitors recapitulating the defect in Ero1α (endoplasmic reticulum oxidoreductase 1a)-null platelets in accordance with the present disclosure. FIG. 18A: The structure of B12 and its inhibitory effect on ERO1α activity. FIG. 18(B-E): The inhibitory effect of B12 on P-selectin exposure and αIIbβ3 integrin activation in (FIG. 18B and FIG. 18C) mouse and (FIG. 18D and FIG. 18E) human platelets. FIG. 18F: The structure of B12-5 and its inhibitory effect on ERO1α activity. FIG. 18G: A docking model of B12-5-ERO1α (3AHQ) and flavin adenine dinucleotide (FAD)-ERO1α complex. There are pi-sulfur interactions of the phenothiazine head group (B112-5) or a tricyclic ring (FAD) with Met389 and Cys397. Also, there are H bond interactions between the tail/alkyl group and His255, Asn259, and Arg287. […] After incubation with a different concentration of B12-5, the specific interaction between B12-5 and ERO1α was measured by subtracting the nonspecific binding. The KD value was calculated from the Kon and Koff values. […] P values determined by ANOVA and Dunnett test (FIG. 18(B-E), FIG. 18(1-L), and FIG. 18(O-R) [for B12-5]) or Student t test (FIG. 18M, FIG. 18N, and FIG. 18(O-R) [for BAPTA (1,2-bis(o-aminophenoxy)ethane-N,N,N′,N′-tetraacetic acid)]). […]

The subject of assay [3] is platelets. Briefly: Platelet activation and aggregation, platelet source not stated. In kind it is cell-based. To be noted: 5-10 microM. From the text: As described herein, small molecule ERO1α inhibitors were identified by performing a high throughput screen using a ChemDiv library. […] Furthermore, intravenous injection of B112-5 reduced the infarct volume in a mouse model of ischemic stroke.

The target in assay [4] is T1, ERO1α. Briefly: ERO1α activity assay. In kind it is biochemical.
Description: as §1, §2

Assay [5] is described as follows: thiol-reacting (GSH) activity assay. In kind it is biochemical.
Description: as §1, §2

In assay [6] the test system is platelets. Particulars: 10 to 33 μM, recent study; cited from earlier work.

“Also recorded” adds a separate entry of the source. Like-named read-outs stand apart in the source and are kept apart here.

PDI, sequence (P07237 18-508, species assumed): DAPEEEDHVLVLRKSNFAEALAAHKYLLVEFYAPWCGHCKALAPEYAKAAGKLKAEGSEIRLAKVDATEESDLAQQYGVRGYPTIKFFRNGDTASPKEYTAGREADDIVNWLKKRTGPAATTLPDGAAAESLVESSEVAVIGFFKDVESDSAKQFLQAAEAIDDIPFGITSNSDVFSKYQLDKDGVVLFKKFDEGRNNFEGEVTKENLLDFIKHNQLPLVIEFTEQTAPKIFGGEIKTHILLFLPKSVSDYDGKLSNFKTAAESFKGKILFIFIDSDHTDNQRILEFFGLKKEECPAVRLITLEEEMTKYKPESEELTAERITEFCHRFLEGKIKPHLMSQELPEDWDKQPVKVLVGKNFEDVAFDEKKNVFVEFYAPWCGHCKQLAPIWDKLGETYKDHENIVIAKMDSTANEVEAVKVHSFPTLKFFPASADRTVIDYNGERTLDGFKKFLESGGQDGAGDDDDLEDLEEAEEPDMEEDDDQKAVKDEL

In general, Kd refers to the free concentration of one partner at which half of the binding sites on the other are occupied at equilibrium, for simple one-to-one binding. As a reminder, the IC50 is the concentration needed to halve the response being measured. For `O=C(CSc1nc(O)cc(O)n1)N1c2ccccc2Sc2ccccc21` [B12-5], the “PDI inhibition at 100 μM (%)” value in assay [1] (100 μM) was determined as 8.2 ± 2%. The “effect on PDI activity” value in assay [1] (at or up to 100 μM) is reported as “minimal effect; also recorded: did not affect”. Besides, in assay [2], the Kd was found to be 12.9 ± 3.8 µM. The “platelet activation and aggregation” value in assay [3] is “significantly inhibited”. Besides, the IC50 in assay [4] (read-out: IC50, ERO1α activity) came out at 7.9 µM; in assay [4] (read-out: IC50, ERO1α inhibitor), 7.9 µM. In addition, the “GSH inhibition at 100 μM (%)” value in assay [5] (100 μM) is listed as 9.7 ± 2%. For the same compound, in assay [5] (at or up to 100 μM), the “effect on thiol-reacting activity” value was “minimal effect; also recorded: did not affect”.
On to `O=C(O)c1cc(N2N=C(C(F)(F)F)/C(=C/c3ccc(-c4ccccc4)o3)C2=O)ccc1Cl` [EN460], for which the thrombin-induced platelet aggregation result in assay [6] was “significantly blocks”.
